The assay concerns the target T1, Parkin ligase (Homo sapiens, UniProt O60260).
T1 sequence (O60260 1-465): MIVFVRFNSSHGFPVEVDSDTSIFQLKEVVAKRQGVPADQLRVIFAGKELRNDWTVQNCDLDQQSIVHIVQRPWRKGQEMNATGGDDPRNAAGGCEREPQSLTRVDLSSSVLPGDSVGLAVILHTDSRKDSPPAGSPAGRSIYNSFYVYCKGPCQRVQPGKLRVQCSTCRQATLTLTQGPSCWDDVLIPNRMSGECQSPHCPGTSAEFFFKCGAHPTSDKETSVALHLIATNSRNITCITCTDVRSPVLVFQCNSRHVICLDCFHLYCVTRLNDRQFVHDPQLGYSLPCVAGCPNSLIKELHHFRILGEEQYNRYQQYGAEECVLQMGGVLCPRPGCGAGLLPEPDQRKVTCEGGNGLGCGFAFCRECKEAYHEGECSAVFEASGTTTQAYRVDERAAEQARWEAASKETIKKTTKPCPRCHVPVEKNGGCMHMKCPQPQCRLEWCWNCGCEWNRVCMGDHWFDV
In words: Activity-Based Probe Assay using an Ubiquitin vinyl sulfone probe (TR-FRET). The note with it: for EC50: Parkin activation, HA-Ub-VS probe, heat activated Parkin, read-out: Probe Assay EC50 (μM) [Example 2]. It counts as biochemical. As for the experimental part:
An Ubiquitin vinyl sulfone probe can be used that irreversibly binds to the active site cysteine of Parkin ligase. Covalent attachment of the probe to the Parkin can be monitored by TR-FRET. Candidate activator compounds can be identified by increasing the activity of Parkin ligase due to an increase in TR-FRET signal. Screening for activating compounds can be distinguished from the controls as follows: • 100% activation signal=Heat activated Parkin+100 nM control activator in DMSO. • 0% activation signal=Heat activated Parkin+DMSO only. • Parkin activators can be identified by an increase of the 0% activation signal TR-FRET signal.
• Assay Plate: White 384 well plate (Corning 3572) • Enzyme: Parkin-His tagged 203 μM (10.5 mg/ml) • Probe: Ubiquitin vinyl-sulfone (HA-Ub-VS Boston Biochem U-212) • DMSO: DMSO (Sigma cat # D4540-100ML) • Reaction Buffer: 50 mM HEPES (pH 8.5), 150 mM NaCl, 0.01% Tween 20, 0.1% BSA • Detection Buffer: 50 mM HEPES (pH 8.5), 150 mM NaCl, 0.01% Tween 20, 0.1% BSA, 800 mM KF • Detection Reagent A: 2.6 nM Anti-6HIS-Eu cryptate and 40 nM Anti-HA-XL665 in detection buffer • Eu cryptate: Anti-6HIS-Eu cryptate (CisBio 61HISKLA) • XL665: Anti-HA-XL665 (CisBio 610HAXLA) Enzyme Reaction (15 min pre incubation Parkin with activator only) • Parkin: 40 nM • HA-Ub-VS Probe: 70 nM • Activator/DMSO: 2× Activator/2% DMSO • Reaction time: 60 minutes • Temperature: 22° C. • Total volume: 10 μl reaction Detection Reaction • Take 10 μl of Enzyme Reaction above and add 10 μl detection Reagent A under the following conditions: • Reaction time: 60 minutes • Temperature: 22° C. • Total volume: 20 μl
Assay procedure (Using HP D-300 compound dispenser and Bravo for the operation): • 1) Heat activate Parkin in reaction buffer (500 μl/1.5 ml tube: Eppendorf Thermomixer 5 minutes, 400 rpm at 58° C. and put on ice until needed). • 2) Load assay plate wells with 4.8 μl 84.5 nM Parkin in reaction buffer by use of Bravo. • 3) Deliver 0.2 μl 200× activator candidates in DMSO by use of HP D-300 compound dispenser. Highest 200× concentration=[…] and then twofold dilutions. • 4) Spin 1000 rpm, 2 minutes, at room temp. • 5) Incubate plate for 15 minutes at room temp. • 6) Add 5 μl 140 nM HA-Ub-VS Probe in reaction buffer by use of Bravo. • 7) Spin 1000 rpm, 2 minutes, at room temp. • 8) Incubate plate for 60 minutes at room temp. • 9) Add 10 μl 2.6 nM Anti-6HIS-Eu cryptate and 40 nM Anti-HA-XL665 in detection buffer. • 10) Spin 1000 rpm, 2 minutes, at room temp. • 11) Incubate plate for 60 minutes at room temp. • 12) Read plates on Perkin Elmer Envision instrument with the following parameters: • LANCE dual laser protocol loaded into the Envision® software • Top Mirror: LANCE/DELFIA Duel/Bias (Bar code 446) • Emission Filter: APC 665 EM (Bar code 205) • 2nd Emission Filter: Europium 615 EM (Bar code 203) • Read 655 nm (channel 1) and 615 nm (channel 2) wavelengths on Envision®
Data Analysis: The Data can be read in CSV files. There are two tables in those CSV files, which are the values of 655 nm (channel 1) and 615 nm (channel 2) wavelengths respectively. The data is converted to an HTRF Ratio=(Channel 1/Channel 2)*10,000
The average of all the 0 uM controls (DMSO only)=BKGD (Background—0% activation). Subtract BKGD from each HTRF Ratio value=HTRF-BKGD. The average of all the […] 100 nM control activator in DMSO controls=Max (100% activation). The following equation is then used to calculate % Activation for each well/candidate as follows: % Activation=(HTRF-BKGD/Max)*100.
Graphpad Prisim was used with Transform X values: X=Log(X) and nonlinear regression (dose-response-stimulation): Log(agonist) vs Response—variable slope (four parameters) with constrains set to Bottom=0 and Top=100.
The Activity-Based Probe Assay was performed with various compounds in Tables 1-3.
A general note: Time-resolved FRET reads energy transfer from a long-lived donor to a nearby acceptor.

The structures appear in SMILES notation. Bounds are passed on as bounds.

42 molecules from patent publication US10308617B2, “Triazole benzamide derivatives and the compositions and methods of treatment regarding the same” (An2H Discovery Limited, priority 2016, dated 2019) can be followed below.

For orientation: EC50 means the concentration at which the effect is half-maximal.

On to `O=C(Nc1nc(Nc2cc(N3CCCC3)nc3ccccc23)n(-c2ccccc2)n1)c1ccccc1` [Compound A1], for which the EC50 was over 100 µM. In the case of `O=C(Nc1nc(NC(=O)c2cc3ccccc3s2)n(-c2ccccc2)n1)c1ccccc1` [Compound A2], the EC50 was determined as 50 µM. Take `O=C(Nc1nc(NC(=O)c2ccccc2)n(-c2ccccc2)n1)c1ccccc1` [Compound A, N,N′-(1-phenyl-1H-1,2,4-triazole-3,5-diyl)dibenzamide]: the “Parkin Ligase reaction with the Activity-based Ubiquitin vinyl sulfone probe” value is recorded as “increases” and the concentration giving a half-maximal response (EC50) was determined as 7 µM. Take `O=C(Nc1nc(Nc2nc(N3CCCC3)c3ccccc3n2)n(-c2ccccc2)n1)c1ccccc1` [Compound B1]: the concentration giving a half-maximal response (EC50) was over 100 µM. As to `O=C(Nc1nc(NC(=O)c2ccc3ccccc3n2)n(-c2ccccc2)n1)c1ccccc1` [Compound B2], the EC50 worked out at 4 µM. On to `CC(=O)Nc1nc(NC(C)=O)n(-c2ccccc2)n1` [Compound B], for which the concentration for a half-maximal effect (EC50) is over 100 µM.

Regarding `O=C(Nc1nc(Nc2ncnc3ccccc23)n(-c2ccccc2)n1)c1cccs1` [Compound C1], the concentration giving a half-maximal response (EC50) is 3.7 µM. In the case of `Cc1ccccc1C(=O)Nc1nc(NC(=O)/C=C/c2ccccc2)n(-c2ccccc2)n1` [Compound C2], the EC50 stood at 4 µM. Take `O=C(/C=C/c1ccccc1)Nc1nc(NC(=O)c2ccccc2)nn1-c1ccccc1` [Compound C, N-(5-cinnamamido-1-phenyl-1H-1,2,4-triazol-3-yl)benzamide]: the “Parkin Ligase reaction with the Activity-based Ubiquitin vinyl sulfone probe” value is reported as “increases” and the EC50 is 15.1 µM. Turning to `CN1CCC(C(=O)Nc2nc(Nc3ncnc4ccccc34)n(-c3ccccc3)n2)CC1` [Compound D1], the 50% effective concentration (EC50) came to 38.9 µM. As for `O=C(Nc1nc(NC(=O)c2ccccc2)n(-c2ccc3ccccc3n2)n1)c1ccccc1` [Compound D2], the EC50 stood at 89 µM.

For the molecule `O=C(Nc1nc(Nc2nc(O)nc3ccccc23)n(-c2ccccc2)n1)c1ccccc1` [Compound E1], the half-maximal effective concentration (EC50) was over 100 µM. As for `O=C(Nc1nc(NC(=O)c2ccccc2)n(-c2ccc3c(c2)OCCO3)n1)c1ccccc1` [Compound E2], the 50% effective concentration (EC50) is 6 µM.

On to `O=C(Nc1nc(NC(=O)c2ccccc2)n(-c2ccc(I)cc2)n1)c1ccccc1` [Compound E, N-[5-benzamido-1-(4-iodophenyl)-1,2,4-triazol-3-yl]benzamide], for which the 50% effective concentration (EC50) worked out at 15.3 µM. For the molecule `CCN(CC)c1cc(Nc2nc(NC(=O)c3ccccc3)nn2-c2ccccc2)ncn1` [Compound F1], the EC50 was over 100 µM.

With `COc1ccc(-n2nc(NC(=O)c3ccccc3)nc2NC(=O)c2ccccc2)cc1` [Compound F2], the 50% effective concentration (EC50) is 12 µM. Still for that read-out and setting: under `Cc1ccccc1C(=O)Nc1nc(NC(=O)c2ccccc2C)n(-c2ccccc2)n1` [Compound F, 2-methyl-N-[5-[(2-methylbenzoyl)amino]-1-phenyl-1,2,4-triazol-3-yl]benzamide] stands 6.7 µM. Consider `O=C(Nc1nc(Nc2cc(N3CCCC3)ncn2)n(-c2ccccc2)n1)c1ccccc1` [Compound G1], for which the concentration giving a half-maximal response (EC50) is over 100 µM. In the case of `O=C(Nc1nc(NC(=O)c2cccs2)nn1-c1ccccc1)c1ccccc1` [Compound G2], the concentration for a half-maximal effect (EC50) came to 2 µM. As to `O=C(Nc1nc(Nc2ccncn2)n(-c2ccccc2)n1)c1ccccc1` [Compound H1], the concentration giving a half-maximal response (EC50) is over 100 µM. For `Cc1ccccc1C(=O)Nc1nc(-c2ccccn2)nn1-c1ccc(OC(F)(F)F)cc1` [Compound H3], the concentration giving a half-maximal response (EC50) came out at 3 µM. In the case of `Cc1ccccc1C(=O)Nc1nc(NC(=O)c2ccccc2)n(-c2ccccc2)n1` [Compound H], the EC50 was over 100 µM.

On to `O=C(Nc1nc(Nc2ccnc3ccccc23)n(-c2ccccc2)n1)c1ccccc1` [Compound I1], for which the half-maximal effective concentration (EC50) is over 100 µM. Take `O=C(Nc1nc(NC(=O)c2ccccc2)n(C2CCOCC2)n1)c1ccccc1` [Compound I2]: the EC50 is over 100 µM. Turning to `Nc1nc(Nc2nc(NC(=O)c3ccccc3)nn2-c2ccccc2)c2ccccc2n1` [Compound J1], the EC50 was over 100 µM.

As to `O=C(Nc1nc(NC(=O)c2ccccc2)n(-c2ccc3ncccc3c2)n1)c1ccccc1` [Compound J2], the concentration giving a half-maximal response (EC50) was 6 µM. Consider `CC(C)C(=O)Nc1nc(Nc2ncnc3ccccc23)n(-c2ccccc2)n1` [Compound K1], for which the EC50 stood at 9.2 µM.

In the case of `Cc1ccccc1C(=O)Nc1nc(NC(=O)c2cccs2)nn1-c1ccccc1` [Compound K2], the EC50 was 6 µM.

On to `Cc1ccccc1C(=O)Nc1nc(NC(=O)c2ccccc2)nn1-c1ccccc1` [Compound K, N-(5-benzamido-2-phenyl-1,2,4-triazol-3-yl)-2-methyl-benzamide], for which the EC50 was 10.8 µM. As to `C/C=C/C(=O)Nc1nc(Nc2ncnc3ccccc23)n(-c2ccccc2)n1` [Compound L1], the EC50 came out at 37 µM. `C=CC(=O)Nc1nc(NC(=O)c2ccccc2)nn1-c1ccccc1` [Compound L2]: the 50% effective concentration (EC50) is over 100 µM.

With `O=C(Nc1nc(Nc2ncnc3ccccc23)n(-c2ccccc2)n1)c1ccccc1` [Compound L, N-[1-phenyl-5-(quinazolin-4-ylamino)-1,2,4-triazol-3-yl]benzamide], the half-maximal effective concentration (EC50) came out at 1.8 µM. As for `C=C(C)C(=O)Nc1nc(Nc2ncnc3ccccc23)n(-c2ccccc2)n1` [Compound M1], the EC50 was 11.9 µM. For the molecule `O=C(Nc1nc(NC(=O)c2nc3ccccc3s2)n(-c2ccccc2)n1)c1ccccc1` [Compound M2], the half-maximal effective concentration (EC50) is over 100 µM. The same measure, in the same setting: under `Nc1nc(Nc2nc(NC(=O)c3ccccc3)nn2-c2ccccc2)nc2ccccc12` [Compound N1] stands over 100 µM.

Take `O=C(Nc1nc(Nc2nc(O)c3ccccc3n2)n(-c2ccccc2)n1)c1ccccc1` [Compound O1]: the concentration for a half-maximal effect (EC50) is 12.8 µM. On to `O=C(Nc1nc(NC(=O)c2ccccc2)n(-c2cccc3cccnc23)n1)c1ccccc1` [Compound O2], for which the concentration giving a half-maximal response (EC50) was over 100 µM. Turning to `O=C(Nc1nc(NC(=O)c2ccccc2)n(-c2cccc3ncccc23)n1)c1ccccc1` [Compound P2], the half-maximal effective concentration (EC50) is over 100 µM.

On to `Cc1ccccc1C(=O)Nc1nc(-c2ccccn2)nn1-c1ccccc1` [Compound Q2], for which the concentration for a half-maximal effect (EC50) came out at 26 µM. `Cc1ccccc1C(=O)Nc1nc(NC(=O)c2ccccc2C)n(-c2ccc(Cl)cc2)n1` [Compound Q3]: the 50% effective concentration (EC50) worked out at 4 µM.

Take `Cc1ccccc1C(=O)Nc1nc(Nc2ncnc3ccccc23)n(-c2ccccc2)n1` [Compound R2]: the EC50 is 4 µM.

Take `Cc1ccc(-c2nc(NC(=O)c3ccccc3C)n(-c3ccccc3)n2)nc1` [Compound R3, 2-methyl-N-(3-(5-methylpyridin-2-yl)-1-phenyl-1H-1,2,4-triazol-5-yl)benzamide]: the EC50 was 3 µM.
